The values that follow come from patent publication US20130065757A1, “CHEMICAL COMPOUNDS” (Syngenta Limited, priority 2010, published 2013).

Type in all cases: in vivo
Experiment [1] deals with Echinochloa crus-galli (ECHCG). The experiment can be described thus: Pre-emergence biological efficacy, glasshouse pot test. The settings on record: 312 h, 1,000 g/ha, evaluated after 13 days, 100=total damage, 0=no damage, read-out: Percentage damage caused to weed species, pre-emergence, ECHCG. As to the method:
(§1) Seeds of Alopecurus myosuroides (ALOMY), Setaria faberi (SETFA), Echinochloa crus-galli (ECHCG), Solanum nigrum (SOLNI), Amaranthus retroflexus (AMARE) and Ipomoea hederaceae (IPOHE) were sown in standard soil in pots. After cultivation for one day under controlled conditions in a glasshouse (at 24/16° C., day/night; 14 hours light; 65% humidity), the plants were sprayed with an aqueous spray solution derived from the formulation of the technical active ingredient in acetone/water (50:50) solution containing 0.5% Tween 20 (polyoxyethylene sorbitan monolaurate, CAS RN 9005-64-5) to give a final dose of 1000 g/ha of test compound.
(§2) The test plants were then grown under controlled conditions in the glasshouse (at 24/16° C., day/night; 14 hours light; 65% humidity) and watered twice daily. After 13 days the test was evaluated (100=total damage to plant; 0=no damage to plant).

The test system of experiment [2] is Solanum nigrum (SOLNI). Described as above. The settings on record: 312 h, 1,000 g/ha, evaluated after 13 days, 100=total damage, 0=no damage, read-out: Percentage damage caused to weed species, pre-emergence, SOLNI. As to the method:
as §1, §2

In experiment [3] the test system is Alopecurus myosuroides (ALOMY). The experiment is described as above. Conditions: 312 h, 1,000 g/ha, evaluated after 13 days, 100=total damage, 0=no damage, read-out: Percentage damage caused to weed species, pre-emergence, ALOMY. As to the method:
as §1, §2

The test system of experiment [4] is Ipomoea hederaceae (IPOHE). The experiment is described as above. Conditions: 312 h, 1,000 g/ha, evaluated after 13 days, 100=total damage, 0=no damage, read-out: Percentage damage caused to weed species, pre-emergence, IPOHE. As to the method:
as §1, §2

The subject of experiment [5] is Setaria faberi (SETFA). The description is as above. The settings on record: 312 h, 1,000 g/ha, evaluated after 13 days, 100=total damage, 0=no damage, read-out: Percentage damage caused to weed species, pre-emergence, SETFA. As to the method:
as §1, §2

Experiment [6] concerns Amaranthus retroflexus (AMARE). The experiment is described as above. Conditions: 312 h, 1,000 g/ha, evaluated after 13 days, 100=total damage, 0=no damage, read-out: Percentage damage caused to weed species, pre-emergence, AMARE. As to the method:
as §1, §2

In experiment [7] the test system is Echinochloa crus-galli (ECHCG). The experiment can be described thus: Post-emergence biological efficacy, glasshouse pot test. Conditions: 312 h, 1,000 g/ha, post-emergence (sprayed after 8 days), evaluated after 13 days, 100=total damage, 0=no damage, read-out: Percentage damage caused to weed species, post-emergence, ECHCG. As for the experimental part: as §1, with “8 days” for “one day”
(§3) The test plants were then grown on under controlled conditions in a glasshouse (at 24/16° C., day/night; 14 hours light; 65% humidity) and watered twice daily. After 13 days the test was evaluated (100=total damage to plant; 0=no damage to plant).

Experiment [8] relates to Solanum nigrum (SOLNI). The experiment is described as above. Conditions: 312 h, 1,000 g/ha, post-emergence (sprayed after 8 days), evaluated after 13 days, 100=total damage, 0=no damage, read-out: Percentage damage caused to weed species, post-emergence, SOLNI. As to the method:
as §1, with “8 days” for “one day”
as §3

Experiment [9] concerns Alopecurus myosuroides (ALOMY). Described as above. The settings on record: 312 h, 1,000 g/ha, post-emergence (sprayed after 8 days), evaluated after 13 days, 100=total damage, 0=no damage, read-out: Percentage damage caused to weed species, post-emergence, ALOMY. As to the method: as §1, with “8 days” for “one day”
as §3

Experiment [10] has as its system Ipomoea hederaceae (IPOHE). The experiment is described as above. The settings on record: 312 h, 1,000 g/ha, post-emergence (sprayed after 8 days), evaluated after 13 days, 100=total damage, 0=no damage, read-out: Percentage damage caused to weed species, post-emergence, IPOHE. As for the experimental part:
as §1, with “8 days” for “one day”
as §3

The subject of experiment [11] is Setaria faberi (SETFA). The description is as above. Conditions: 312 h, 1,000 g/ha, post-emergence (sprayed after 8 days), evaluated after 13 days, 100=total damage, 0=no damage, read-out: Percentage damage caused to weed species, post-emergence, SETFA. As to the method: as §1, with “8 days” for “one day”
as §3

For experiment [12], the system named is Amaranthus retroflexus (AMARE). The experiment is described as above. The settings on record: 312 h, 1,000 g/ha, post-emergence (sprayed after 8 days), evaluated after 13 days, 100=total damage, 0=no damage, read-out: Percentage damage caused to weed species, post-emergence, AMARE. As for the experimental part: as §1, with “8 days” for “one day”
as §3

Take `C/C=C/c1c(N)cc(Cl)nc1C(=O)OC` [2-5 (E isomer), (E)-4-Amino-6-chloro-3-(prop-1-enyl)-pyridine-2-carboxylic acid methyl ester]: the pest or weed control at 1000 g/ha in experiment [1] was 70%; in the experiment with Solanum nigrum (SOLNI) [2], 100%; in [3], 90%; in experiment [4], 100%; in the experiment on Setaria faberi (SETFA) [5], 100%; in experiment [6] it was 90%. Also, the pest or weed control at 1000 g/ha worked out at 60% in experiment [7]; 90% in the experiment on Solanum nigrum (SOLNI) [8]; 50% in experiment [9]; 70% in [10]; 70% in the experiment on Setaria faberi (SETFA) [11]; 100% in experiment [12].
For the compound `C/C=C\c1c(N)cc(Cl)nc1C(=O)OC` [2-5 (Z isomer), (Z)-4-Amino-6-chloro-3-(prop-1-enyl)-pyridine-2-carboxylic acid methyl ester], the pest or weed control at 1000 g/ha in experiment [1] came out at 70%; in the experiment on Solanum nigrum (SOLNI) [2], 100%; in experiment [3], 90%; in experiment [4], 90%; with Setaria faberi (SETFA) [5], 100%; in [6], 100%. In addition, the pest or weed control at 1000 g/ha in experiment [7] worked out at 60%; in the experiment with Solanum nigrum (SOLNI) [8], 100%; in experiment [9], 50%; in experiment [10], 50%; in the experiment on Setaria faberi (SETFA) [11], 80%; in experiment [12], 100%.
As for `C=Cc1c(C(=O)O)nc(Cl)c(Cl)c1N` [Compound 1-20, 4-Amino-5,6-dichloro-3-ethenyl-pyridine-2-carboxylic acid], the pest or weed control at 1000 g/ha in experiment [1] is 90%; in the experiment with Solanum nigrum (SOLNI) [2], 100%; in experiment [3], 90%; in [4] it was 100%; in the experiment with Setaria faberi (SETFA) [5], 90%; in [6], 100%. The pest or weed control at 1000 g/ha in experiment [7] worked out at 90%; with Solanum nigrum (SOLNI) [8] it was 90%; in [9], 90%; in experiment [10], 100%; with Setaria faberi (SETFA) [11], 90%; in [12], 100%.
On to `COC(=O)c1nc(Cl)cc(N)c1C` [Compound 2-1, 4-amino-6-chloro-3-methyl-pyridine-2-carboxylic acid methyl ester], for which the pest or weed control at 1000 g/ha came out at 70% in [1]; 100% in the experiment with Solanum nigrum (SOLNI) [2]; 90% in experiment [3]; 80% in experiment [4]; 80% with Setaria faberi (SETFA) [5]; 100% in [6]. Further, the pest or weed control at 1000 g/ha was determined as 60% in [7]; 90% with Solanum nigrum (SOLNI) [8]; 90% in experiment [9]; 50% in [10]; 100% with Setaria faberi (SETFA) [11]; 100% in experiment [12].
Consider `COC(=O)c1nc(Cl)cc(N)c1C(F)(F)F` [Compound 2-2, 4-amino-6-chloro-3-trifluoromethyl-pyridine-2-carboxylic acid methyl ester], for which the pest or weed control at 1000 g/ha in experiment [1] was found to be 10%; in the experiment on Solanum nigrum (SOLNI) [2] it was 80%; in experiment [3] it was 20%; in experiment [4], 90%; with Setaria faberi (SETFA) [5] it was 0%; in experiment [6], 80%. The pest or weed control at 1000 g/ha worked out at 10% in experiment [7]; 80% in the experiment on Solanum nigrum (SOLNI) [8]; 10% in experiment [9]; 70% in [10]; 10% with Setaria faberi (SETFA) [11]; 80% in [12].
As to `C=Cc1c(N)cc(Cl)nc1C(=O)OC` [Compound 2-4, 4-amino-6-chloro-3-ethenyl-pyridine-2-carboxylic acid methyl ester], the pest or weed control at 1000 g/ha in experiment [1] was 90%; in the experiment with Solanum nigrum (SOLNI) [2], 100%; in [3] it was 90%; in [4], 100%; in the experiment with Setaria faberi (SETFA) [5], 90%; in experiment [6], 100%. Moreover, the pest or weed control at 1000 g/ha amounted to 80% in experiment [7]; 100% with Solanum nigrum (SOLNI) [8]; 90% in experiment [9]; 80% in experiment [10]; 100% in the experiment on Setaria faberi (SETFA) [11]; 100% in experiment [12].
Turning to `C=CCc1c(N)cc(Cl)nc1C(=O)OC` [Compound 2-7, 4-amino-6-chloro-3-(prop-2-enyl)-pyridine-2-carboxylic acid methyl ester], the pest or weed control at 1000 g/ha worked out at 40% in experiment [1]; 90% with Solanum nigrum (SOLNI) [2]; 30% in experiment [3]; 70% in experiment [4]; 40% in the experiment on Setaria faberi (SETFA) [5]; 90% in [6]. Moreover, the pest or weed control at 1000 g/ha in experiment [7] stood at 10%; in the experiment on Solanum nigrum (SOLNI) [8], 90%; in experiment [9], 20%; in [10], 50%; in the experiment with Setaria faberi (SETFA) [11] it was 30%; in experiment [12] it was 90%.
As to `C=C(C)Cc1c(N)cc(Cl)nc1C(=O)OC` [Compound 2-8, 4-amino-6-chloro-3-(2-methyl-prop-2-enyl)-pyridine-2-carboxylic acid methyl ester], the pest or weed control at 1000 g/ha was determined as 0% in experiment [1]; 80% with Solanum nigrum (SOLNI) [2]; 10% in experiment [3]; 80% in experiment [4]; 10% in the experiment on Setaria faberi (SETFA) [5]; 40% in experiment [6]. Also, the pest or weed control at 1000 g/ha in experiment [7] was determined as 0%; in the experiment on Solanum nigrum (SOLNI) [8], 80%; in experiment [9] it was 10%; in [10] it was 50%; in the experiment with Setaria faberi (SETFA) [11], 10%; in experiment [12] it was 70%.
